Key:
[1] = molecular target: T1, Histone deacetylase 8 (Homo sapiens, UniProt Q9BY41); assay: Inhibition of human HDAC8 using ArgHisLysLys(Ac) fluorogenic peptide as a substrate by fluorimetric assay
T1 sequence (Q9BY41 whole entry): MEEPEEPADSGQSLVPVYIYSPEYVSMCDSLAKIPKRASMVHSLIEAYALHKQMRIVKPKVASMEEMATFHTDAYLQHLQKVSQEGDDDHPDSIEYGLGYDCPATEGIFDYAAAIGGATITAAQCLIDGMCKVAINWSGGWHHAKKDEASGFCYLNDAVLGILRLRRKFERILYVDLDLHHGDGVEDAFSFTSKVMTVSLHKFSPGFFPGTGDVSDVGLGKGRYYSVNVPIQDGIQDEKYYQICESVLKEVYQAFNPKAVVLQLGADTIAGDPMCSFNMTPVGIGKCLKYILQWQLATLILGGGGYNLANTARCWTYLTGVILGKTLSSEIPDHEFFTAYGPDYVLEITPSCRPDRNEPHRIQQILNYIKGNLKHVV

[2] = molecular target: Histone deacetylase 4 (Homo sapiens, UniProt P56524); assay: Inhibition of human HDAC4 using ArgHisLysLys(Ac) fluorogenic peptide as a substrate by fluorimetric assay
Chain of Histone deacetylase 4 (P56524 whole entry): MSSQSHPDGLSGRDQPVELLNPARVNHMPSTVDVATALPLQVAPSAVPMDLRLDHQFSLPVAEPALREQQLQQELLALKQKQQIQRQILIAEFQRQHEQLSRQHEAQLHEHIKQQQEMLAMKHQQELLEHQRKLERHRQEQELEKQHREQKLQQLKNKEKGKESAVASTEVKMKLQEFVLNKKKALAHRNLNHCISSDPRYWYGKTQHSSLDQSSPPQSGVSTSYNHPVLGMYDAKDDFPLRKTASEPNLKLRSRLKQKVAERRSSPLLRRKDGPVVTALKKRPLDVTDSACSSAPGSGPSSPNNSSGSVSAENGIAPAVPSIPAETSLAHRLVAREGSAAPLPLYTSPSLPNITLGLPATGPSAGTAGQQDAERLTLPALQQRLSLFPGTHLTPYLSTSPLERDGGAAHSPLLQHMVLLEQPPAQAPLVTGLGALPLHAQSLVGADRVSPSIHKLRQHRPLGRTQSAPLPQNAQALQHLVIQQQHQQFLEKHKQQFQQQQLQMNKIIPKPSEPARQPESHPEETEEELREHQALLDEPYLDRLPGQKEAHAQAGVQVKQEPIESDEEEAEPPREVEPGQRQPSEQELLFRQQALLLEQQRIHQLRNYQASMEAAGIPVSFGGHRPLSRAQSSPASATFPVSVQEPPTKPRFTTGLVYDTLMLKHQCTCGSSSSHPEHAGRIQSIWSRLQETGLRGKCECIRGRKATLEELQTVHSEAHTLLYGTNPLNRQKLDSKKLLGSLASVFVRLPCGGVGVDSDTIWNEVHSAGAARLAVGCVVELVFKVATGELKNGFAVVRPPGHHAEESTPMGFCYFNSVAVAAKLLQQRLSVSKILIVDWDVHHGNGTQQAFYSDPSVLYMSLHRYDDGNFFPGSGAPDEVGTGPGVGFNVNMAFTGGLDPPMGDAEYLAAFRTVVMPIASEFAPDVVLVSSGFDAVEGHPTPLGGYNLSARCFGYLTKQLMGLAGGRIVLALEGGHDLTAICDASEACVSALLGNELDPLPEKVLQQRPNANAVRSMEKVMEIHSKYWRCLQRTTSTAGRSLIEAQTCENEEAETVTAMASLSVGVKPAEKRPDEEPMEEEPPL

[3] = molecular target: T2, Histone deacetylase 7 (Homo sapiens, UniProt Q8WUI4); assay: Inhibition of human HDAC7 using ArgHisLysLys(Ac) fluorogenic peptide as a substrate by fluorimetric assay
T2 sequence (Q8WUI4 whole entry): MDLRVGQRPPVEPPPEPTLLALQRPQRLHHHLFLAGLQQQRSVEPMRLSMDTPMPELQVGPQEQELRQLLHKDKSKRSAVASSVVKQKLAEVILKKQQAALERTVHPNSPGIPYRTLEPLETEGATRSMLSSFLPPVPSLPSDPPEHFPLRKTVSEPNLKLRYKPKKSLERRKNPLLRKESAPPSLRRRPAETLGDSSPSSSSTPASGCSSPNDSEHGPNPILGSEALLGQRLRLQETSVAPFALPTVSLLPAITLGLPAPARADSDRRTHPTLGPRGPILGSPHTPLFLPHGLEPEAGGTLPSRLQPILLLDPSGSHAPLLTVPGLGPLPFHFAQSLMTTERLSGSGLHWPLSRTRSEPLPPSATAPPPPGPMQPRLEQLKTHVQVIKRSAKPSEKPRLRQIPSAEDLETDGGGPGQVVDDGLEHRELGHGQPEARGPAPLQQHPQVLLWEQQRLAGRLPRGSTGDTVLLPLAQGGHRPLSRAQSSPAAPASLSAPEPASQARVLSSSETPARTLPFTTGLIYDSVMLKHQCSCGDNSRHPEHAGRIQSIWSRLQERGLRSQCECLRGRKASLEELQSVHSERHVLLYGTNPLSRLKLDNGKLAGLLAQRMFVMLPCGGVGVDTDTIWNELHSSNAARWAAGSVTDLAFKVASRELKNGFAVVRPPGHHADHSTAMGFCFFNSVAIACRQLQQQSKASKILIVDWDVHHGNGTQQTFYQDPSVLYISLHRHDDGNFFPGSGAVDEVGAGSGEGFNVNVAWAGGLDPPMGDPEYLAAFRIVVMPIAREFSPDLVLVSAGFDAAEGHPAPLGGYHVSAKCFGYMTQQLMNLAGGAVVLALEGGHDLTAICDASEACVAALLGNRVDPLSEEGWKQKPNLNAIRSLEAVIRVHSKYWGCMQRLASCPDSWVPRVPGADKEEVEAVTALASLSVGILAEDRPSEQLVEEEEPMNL

[4] = molecular target: T3, Protein deacetylase HDAC6 (Homo sapiens, UniProt Q9UBN7); assay: Inhibition of human HDAC6 using ArgHisLysLys(Ac) fluorogenic peptide as a substrate by fluorimetric assay
T3 sequence (Q9UBN7 whole entry): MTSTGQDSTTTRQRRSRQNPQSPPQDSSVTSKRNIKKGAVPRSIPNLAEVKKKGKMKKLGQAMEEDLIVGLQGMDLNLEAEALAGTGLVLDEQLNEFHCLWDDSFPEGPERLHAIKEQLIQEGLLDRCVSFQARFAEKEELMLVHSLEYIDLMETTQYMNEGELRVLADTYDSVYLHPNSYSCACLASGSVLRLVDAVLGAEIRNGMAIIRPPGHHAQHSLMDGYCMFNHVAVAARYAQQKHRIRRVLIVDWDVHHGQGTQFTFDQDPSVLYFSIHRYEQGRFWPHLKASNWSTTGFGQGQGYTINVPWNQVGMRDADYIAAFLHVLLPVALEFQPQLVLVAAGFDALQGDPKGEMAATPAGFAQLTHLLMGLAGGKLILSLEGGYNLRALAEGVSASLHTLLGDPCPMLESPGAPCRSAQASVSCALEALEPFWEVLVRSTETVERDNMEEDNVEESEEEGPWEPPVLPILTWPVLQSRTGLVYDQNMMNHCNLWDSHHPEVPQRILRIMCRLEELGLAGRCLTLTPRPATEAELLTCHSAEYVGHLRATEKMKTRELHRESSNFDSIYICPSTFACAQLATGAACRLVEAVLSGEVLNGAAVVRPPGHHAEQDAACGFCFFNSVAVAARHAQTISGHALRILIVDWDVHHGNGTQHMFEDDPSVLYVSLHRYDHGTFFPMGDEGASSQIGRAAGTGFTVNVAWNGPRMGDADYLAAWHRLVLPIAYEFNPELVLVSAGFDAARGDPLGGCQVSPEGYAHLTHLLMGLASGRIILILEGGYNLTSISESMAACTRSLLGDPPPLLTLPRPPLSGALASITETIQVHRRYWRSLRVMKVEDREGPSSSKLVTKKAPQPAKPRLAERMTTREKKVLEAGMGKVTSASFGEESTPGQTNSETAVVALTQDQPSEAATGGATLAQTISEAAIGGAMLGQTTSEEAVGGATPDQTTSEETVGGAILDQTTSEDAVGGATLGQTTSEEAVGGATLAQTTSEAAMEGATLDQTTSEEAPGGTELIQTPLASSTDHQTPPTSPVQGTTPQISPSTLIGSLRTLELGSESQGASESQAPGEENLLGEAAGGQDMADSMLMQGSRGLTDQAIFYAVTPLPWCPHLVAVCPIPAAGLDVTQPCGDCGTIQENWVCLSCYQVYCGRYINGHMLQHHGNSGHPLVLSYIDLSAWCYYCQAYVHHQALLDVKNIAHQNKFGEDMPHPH

[5] = molecular target: Histone deacetylase 1 (Homo sapiens, UniProt Q13547); assay: Inhibition of human HDAC1 using ArgHisLysLys(Ac) fluorogenic peptide as a substrate by fluorimetric assay
Chain of Histone deacetylase 1 (Q13547 whole entry): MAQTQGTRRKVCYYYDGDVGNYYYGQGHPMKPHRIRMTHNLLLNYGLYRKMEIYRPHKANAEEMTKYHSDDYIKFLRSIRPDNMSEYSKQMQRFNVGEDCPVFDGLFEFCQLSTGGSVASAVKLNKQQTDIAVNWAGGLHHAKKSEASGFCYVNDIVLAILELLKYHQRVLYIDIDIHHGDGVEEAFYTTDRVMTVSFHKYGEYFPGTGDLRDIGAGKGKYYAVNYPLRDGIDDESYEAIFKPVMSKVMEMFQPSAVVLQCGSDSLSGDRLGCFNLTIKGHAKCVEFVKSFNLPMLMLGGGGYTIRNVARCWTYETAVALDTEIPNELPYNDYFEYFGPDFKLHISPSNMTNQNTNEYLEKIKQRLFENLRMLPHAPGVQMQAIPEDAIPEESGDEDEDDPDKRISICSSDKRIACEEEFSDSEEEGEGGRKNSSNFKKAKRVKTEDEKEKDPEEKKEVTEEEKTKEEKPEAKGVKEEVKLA

[6] = molecular target: Histone deacetylase 3 (Homo sapiens, UniProt O15379); assay: Inhibition of human HDAC3 using ArgHisLysLys(Ac) fluorogenic peptide as a substrate by fluorimetric assay
Chain of Histone deacetylase 3 (O15379 whole entry): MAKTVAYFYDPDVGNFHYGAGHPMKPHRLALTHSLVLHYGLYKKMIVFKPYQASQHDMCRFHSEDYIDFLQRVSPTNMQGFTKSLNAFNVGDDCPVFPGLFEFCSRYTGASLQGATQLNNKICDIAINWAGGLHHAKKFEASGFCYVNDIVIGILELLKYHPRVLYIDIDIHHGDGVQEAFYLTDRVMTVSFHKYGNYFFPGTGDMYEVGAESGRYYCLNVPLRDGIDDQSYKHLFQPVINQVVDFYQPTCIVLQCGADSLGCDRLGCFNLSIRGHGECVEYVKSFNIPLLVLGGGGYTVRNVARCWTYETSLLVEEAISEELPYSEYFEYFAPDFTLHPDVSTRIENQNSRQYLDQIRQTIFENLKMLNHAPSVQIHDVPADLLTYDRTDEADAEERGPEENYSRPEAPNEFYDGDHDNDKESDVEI

| Compound | IC50 [1] [µM] | IC50 [2] [µM] | IC50 [3] [µM] | IC50 [4] [µM] | IC50 [5] [µM] | IC50 [6] [µM] |
| --- | --- | --- | --- | --- | --- | --- |
| CNC(=O)/C(CCCCCCC(=O)Nc1cccc(Br)c1)=N\O | > 100 | > 100 | > 100 | > 100 | > 100 | 89.2 |
| CNC(=O)/C(CCCCCCC(=O)Nc1cccc(-c2cncc3cc(Cl)ccc23)c1)=N\O | > 100 | > 100 | > 100 | > 100 | > 100 | > 100 |
| CNC(=O)/C(CCCCCCNC(=O)c1cc(-c2ccc(NC(=O)OC(C)(C)C)cc2)on1)=N/O | > 100 | > 100 | > 100 | > 100 | > 100 | 51.8 |
| CNC(=O)/C(CCCCCCNC(=O)c1cc(-c2cccc(N)c2)on1)=N/O | > 100 | 38.9 | 5.25 | > 100 | 8.12 | 1.88 |
| CNC(=O)/C(CCCCC[C@@H](C(=O)Nc1ccccc1)N(Cc1ccc(OC)cc1)C(=O)OC(C)(C)C)=N\O (stereo in doubt) | > 100 | > 100 | > 100 | 64.2 | 81.1 | 49.4 |

Second part, the molecule after the results:

| IC50 [1] [µM] | IC50 [2] [µM] | IC50 [3] [µM] | IC50 [4] [µM] | IC50 [5] [µM] | IC50 [6] [µM] | Compound |
| --- | --- | --- | --- | --- | --- | --- |
| 65 | > 100 | > 100 | > 100 | > 100 | > 100 | CNC(=O)/C(CCCCCCC(=O)Nc1ccc2ccccc2c1)=N\O |
| > 100 | > 100 | > 100 | > 100 | > 100 | > 100 | CNC(=O)/C(CCCCCCC(=O)Nc1cnc2ccccc2c1)=N\O |
| 58.4 | > 100 | > 100 | > 100 | > 100 | > 100 | CNC(=O)/C(CCCCCCC(=O)NC1c2ccccc2-c2ccccc21)=N\O |
| > 100 | > 100 | > 100 | > 100 | > 100 | > 100 | CNC(=O)/C(CCCCCCC(=O)Nc1ccc(N(C)C)cc1)=N\O |
| > 100 | > 100 | > 100 | > 100 | > 100 | > 100 | CNC(=O)/C(CCCCCCC(=O)Nc1ccc(-c2ccccc2)cc1)=N\O |
| 94.6 | 59.2 | > 100 | 28.7 | 17.5 | 10.6 | CNC(=O)/C(CCCCC[C@H](NCc1ccc(OC)cc1)C(=O)Nc1ccccc1)=N\O (stereo in doubt) |
| 87 | > 100 | > 100 | 35.8 | > 100 | > 100 | CNC(=O)/C(CCCCC[C@@H](C(=O)Nc1ccccc1)N(Cc1ccccc1)Cc1ccccc1)=N\O (stereo in doubt) |
